From patent publication US20230085307A1, “PYRIDAZINONE COMPOUND AND HERBICIDE” (NISSAN CHEMICAL CORPORATION, priority 2019, published 2023)

How the values were obtained:
barnyard grass [1] = assay: Test Example 3: herbicidal effect by foliage application, Wagner pot (Table 18, symbol H); assay type: in vivo, barnyard grass (Echinochloa crus-galli); conditions: 320 g/ha
Procedure, shortened: (§1)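 Plants were sown in alluvial soil held under 0.1–0.5 cm standing water and grown 14 days in a greenhouse at 25–30 °C. An emulsifiable formulation, water-diluted to the set dose, was then sprayed onto the foliage, and effects were scored three weeks later using previously defined criteria.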

Chinese sprangletop = assay: Test Example 3: herbicidal effect by foliage application, Wagner pot (Table 18, symbol D); assay type: in vivo, chinese sprangletop (Leptochloa chinensis); conditions: 320 g/ha
Procedure, shortened: as §1

rice flat sedge = assay: Test Example 3: herbicidal effect by foliage application, Wagner pot (Table 18, symbol E); assay type: in vivo, rice flat sedge (Cyperus iria); conditions: 320 g/ha
Procedure, shortened: as §1

southern crabgrass [2] = assay: Test Example 4: herbicidal effect by soil treatment (Table 19, symbol F); assay type: in vivo, southern crabgrass (Digitaria ciliaris); conditions: amount of applied herbicide 320 g/ha
Procedure, shortened: (§2)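 Step 1: sow seeds in sterilized diluvial soil, cover ~1.5 cm. Step 2: spray diluted emulsion onto soil surface at predetermined rate. Step 3: greenhouse, 25–30° C, three weeks. Step 4: grade effect on each plant by earlier criteria.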

green foxtail [3] = assay: Test Example 4: herbicidal effect by soil treatment (Table 19, symbol G); assay type: in vivo, green foxtail (Setaria viridis); conditions: amount of applied herbicide 320 g/ha
Procedure, shortened: as §2

barnyard grass [4] = assay: Test Example 4: herbicidal effect by soil treatment (Table 19, symbol H); assay type: in vivo, barnyard grass (Echinochloa crus-galli); conditions: amount of applied herbicide 320 g/ha
Procedure, shortened: as §2

wild oat [5] = assay: Test Example 4: herbicidal effect by soil treatment (Table 19, symbol I); assay type: in vivo, wild oat (Avena fatua); conditions: amount of applied herbicide 320 g/ha
Procedure, shortened: as §2

blackgrass [6] = assay: Test Example 4: herbicidal effect by soil treatment (Table 19, symbol J); assay type: in vivo, blackgrass (Alopecurus myosuroides); conditions: amount of applied herbicide 320 g/ha
Procedure, shortened: as §2

Italian ryegrass [7] = assay: Test Example 4: herbicidal effect by soil treatment (Table 19, symbol K); assay type: in vivo, Italian ryegrass (Lolium multiflorum); conditions: amount of applied herbicide 320 g/ha
Procedure, shortened: as §2

windgrass [8] = assay: Test Example 4: herbicidal effect by soil treatment (Table 19, symbol L); assay type: in vivo, windgrass (Apera spica-venti); conditions: amount of applied herbicide 320 g/ha
Procedure, shortened: as §2

velvetleaf [9] = assay: Test Example 4: herbicidal effect by soil treatment (Table 19, symbol M); assay type: in vivo, velvetleaf (Abutilon theophrasti); conditions: amount of applied herbicide 320 g/ha
Procedure, shortened: as §2

redroot pigweed [10] = assay: Test Example 4: herbicidal effect by soil treatment (Table 19, symbol N); assay type: in vivo, redroot pigweed (Amaranthus retroflexus); conditions: amount of applied herbicide 320 g/ha
Procedure, shortened: as §2

lambsquarters [11] = assay: Test Example 4: herbicidal effect by soil treatment (Table 19, symbol O); assay type: in vivo, lambsquarters (Chenopodium album); conditions: amount of applied herbicide 320 g/ha
Procedure, shortened: as §2

chickweed [12] = assay: Test Example 4: herbicidal effect by soil treatment (Table 19, symbol P); assay type: in vivo, common chickweed (Stellaria media); conditions: amount of applied herbicide 320 g/ha
Procedure, shortened: as §2

persian speedwell [13] = assay: Test Example 4: herbicidal effect by soil treatment (Table 19, symbol R); assay type: in vivo, Persian speedwell (Veronica persica); conditions: amount of applied herbicide 320 g/ha
Procedure, shortened: as §2

southern crabgrass [14] = assay: Test Example 5: herbicidal effect by foliage application, plastic box (Table 20, symbol F); assay type: in vivo, southern crabgrass (Digitaria ciliaris); conditions: amount of applied herbicide 320 g/ha; foliage application after 14-day growth; evaluated three weeks after application
Procedure, shortened: (§3)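 Foliar spray test: emulsion formulation diluted in water to a set application rate, sprayed onto 14-day-old plants raised in diluvial soil at 25° C to 30° C under glass. Both herbicidal effect and crop effect rated visually three weeks later.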

green foxtail [15] = assay: Test Example 5: herbicidal effect by foliage application, plastic box (Table 20, symbol G); assay type: in vivo, green foxtail (Setaria viridis); conditions: amount of applied herbicide 320 g/ha; foliage application after 14-day growth; evaluated three weeks after application
Procedure, shortened: as §3

barnyard grass [16] = assay: Test Example 5: herbicidal effect by foliage application, plastic box (Table 20, symbol H); assay type: in vivo, barnyard grass (Echinochloa crus-galli); conditions: amount of applied herbicide 320 g/ha; foliage application after 14-day growth; evaluated three weeks after application
Procedure, shortened: as §3

wild oat [17] = assay: Test Example 5: herbicidal effect by foliage application, plastic box (Table 20, symbol I); assay type: in vivo, wild oat (Avena fatua); conditions: amount of applied herbicide 320 g/ha; foliage application after 14-day growth; evaluated three weeks after application
Procedure, shortened: as §3

blackgrass [18] = assay: Test Example 5: herbicidal effect by foliage application, plastic box (Table 20, symbol J); assay type: in vivo, blackgrass (Alopecurus myosuroides); conditions: amount of applied herbicide 320 g/ha; foliage application after 14-day growth; evaluated three weeks after application
Procedure, shortened: as §3

Italian ryegrass [19] = assay: Test Example 5: herbicidal effect by foliage application, plastic box (Table 20, symbol K); assay type: in vivo, Italian ryegrass (Lolium multiflorum); conditions: amount of applied herbicide 320 g/ha; foliage application after 14-day growth; evaluated three weeks after application
Procedure, shortened: as §3

windgrass [20] = assay: Test Example 5: herbicidal effect by foliage application, plastic box (Table 20, symbol L); assay type: in vivo, windgrass (Apera spica-venti); conditions: amount of applied herbicide 320 g/ha; foliage application after 14-day growth; evaluated three weeks after application
Procedure, shortened: as §3

velvetleaf [21] = assay: Test Example 5: herbicidal effect by foliage application, plastic box (Table 20, symbol M); assay type: in vivo, velvetleaf (Abutilon theophrasti); conditions: amount of applied herbicide 320 g/ha; foliage application after 14-day growth; evaluated three weeks after application
Procedure, shortened: as §3

redroot pigweed [22] = assay: Test Example 5: herbicidal effect by foliage application, plastic box (Table 20, symbol N); assay type: in vivo, redroot pigweed (Amaranthus retroflexus); conditions: amount of applied herbicide 320 g/ha; foliage application after 14-day growth; evaluated three weeks after application
Procedure, shortened: as §3

lambsquarters [23] = assay: Test Example 5: herbicidal effect by foliage application, plastic box (Table 20, symbol O); assay type: in vivo, lambsquarters (Chenopodium album); conditions: amount of applied herbicide 320 g/ha; foliage application after 14-day growth; evaluated three weeks after application
Procedure, shortened: as §3

chickweed [24] = assay: Test Example 5: herbicidal effect by foliage application, plastic box (Table 20, symbol P); assay type: in vivo, common chickweed (Stellaria media); conditions: amount of applied herbicide 320 g/ha; foliage application after 14-day growth; evaluated three weeks after application
Procedure, shortened: as §3

persian speedwell [25] = assay: Test Example 5: herbicidal effect by foliage application, plastic box (Table 20, symbol R); assay type: in vivo, Persian speedwell (Veronica persica); conditions: amount of applied herbicide 320 g/ha; foliage application after 14-day growth; evaluated three weeks after application
Procedure, shortened: as §3

Cc1nn(C)c(=O)c(-c2c(-c3ccc(C(F)(F)F)cc3)sc3cc(F)c(F)cc23)c1O [5-007]
herbicidal effect on barnyard grass (H) (barnyard grass [1]): 4 (Herbicidal rate of 70% or more and less than 90%) | herbicidal effect on Chinese sprangletop (D) (Chinese sprangletop): 1 (Herbicidal rate of 5% or more and less than 20%) | herbicidal effect on rice flat sedge (E) (rice flat sedge): 2 (Herbicidal rate of 20% or more and less than 40%) | F: southern crabgrass, herbicidal effect grade (southern crabgrass [2]): 0 (Herbicidal rate of 5% or less (almost no effect)) | G: green foxtail, herbicidal effect grade (green foxtail [3]): 3 (Herbicidal rate of 40% or more and less than 70%) | H: barnyard grass, herbicidal effect grade (barnyard grass [4]): 0 (Herbicidal rate of 5% or less (almost no effect)) | I: wild oat, herbicidal effect grade (wild oat [5]): 0 (Herbicidal rate of 5% or less (almost no effect)) | J: blackgrass, herbicidal effect grade (blackgrass [6]): 0 (Herbicidal rate of 5% or less (almost no effect)) | K: Italian ryegrass, herbicidal effect grade (Italian ryegrass [7]): 0 (Herbicidal rate of 5% or less (almost no effect)) | L: windgrass, herbicidal effect grade (windgrass [8]): 0 (Herbicidal rate of 5% or less (almost no effect)) | M: velvetleaf, herbicidal effect grade (velvetleaf [9]): 0 (Herbicidal rate of 5% or less (almost no effect)) | N: redroot pigweed, herbicidal effect grade (redroot pigweed [10]): 3 (Herbicidal rate of 40% or more and less than 70%) | O: lambsquarters, herbicidal effect grade (lambsquarters [11]): 1 (Herbicidal rate of 5% or more and less than 20%) | P: chickweed, herbicidal effect grade (chickweed [12]): 3 (Herbicidal rate of 40% or more and less than 70%) | R: persian speedwell, herbicidal effect grade (persian speedwell [13]): 3 (Herbicidal rate of 40% or more and less than 70%) | Herbicidal effect by foliage application, F: southern crabgrass (southern crabgrass [14]): 5 (Herbicidal rate of 90% or more (almost completely withered)) | Herbicidal effect by foliage application, G: green foxtail (green foxtail [15]): 4 (Herbicidal rate of 70% or more and less than 90%) | Herbicidal effect by foliage application, H: barnyard grass (barnyard grass [16]): 3 (Herbicidal rate of 40% or more and less than 70%) | Herbicidal effect by foliage application, I: wild oat (wild oat [17]): 2 (Herbicidal rate of 20% or more and less than 40%) | Herbicidal effect by foliage application, J: blackgrass (blackgrass [18]): 0 (Herbicidal rate of 5% or less (almost no effect)) | Herbicidal effect by foliage application, K: Italian ryegrass (Italian ryegrass [19]): 0 (Herbicidal rate of 5% or less (almost no effect)) | Herbicidal effect by foliage application, L: windgrass (windgrass [20]): 4 (Herbicidal rate of 70% or more and less than 90%) | Herbicidal effect by foliage application, M: velvetleaf (velvetleaf [21]): 3 (Herbicidal rate of 40% or more and less than 70%) | Herbicidal effect by foliage application, N: redroot pigweed (redroot pigweed [22]): 5 (Herbicidal rate of 90% or more (almost completely withered)) | Herbicidal effect by foliage application, O: lambsquarters (lambsquarters [23]): 5 (Herbicidal rate of 90% or more (almost completely withered)) | Herbicidal effect by foliage application, P: chickweed (chickweed [24]): 5 (Herbicidal rate of 90% or more (almost completely withered)) | Herbicidal effect by foliage application, R: persian speedwell (persian speedwell [25]): 5 (Herbicidal rate of 90% or more (almost completely withered))
